Patent US10966426B2, “Herbicidal compositions comprising phenylpyrimidines” (BASF SE, priority 2016, dated 2021)

Legend:
Format in all cases: in vivo
Helianthus annuus = experiment: greenhouse pre-emergence treatment, HELAN; settings: HELAN
From the text: (§1) The culture containers used were plastic pots containing loamy sand with approximately 3.0% of humus as substrate. The seeds of the test plants were sown separately for each species.
(§2) For the pre-emergence treatment, the active compounds, suspended or emulsified in water, were applied directly after sowing by means of finely distributing nozzles. The containers were irrigated gently to promote germination and growth and subsequently covered with transparent plastic hoods until the plants had rooted. This cover caused uniform germination of the test plants unless this was adversely affected by the active compounds.
(§3) Depending on the species, the plants were kept at 10-25° C. and 20-35° C., respectively.
(§4) The test period extended over 2 to 4 weeks. During this time, the plants were tended and their response to the individual treatments was evaluated.
(§5) Evaluation was carried out using a scale from 0 to 100. 100 means no emergence of the plants, or complete destruction of at least the above-ground parts, and 0 means no damage or normal course of growth. A good herbicidal activity is given at values of at least 70, and very good herbicidal activity is given at values of at least 85.
(§6) The respective stated components A and B, and if appropriate, C were formulated as a 10% by weight strength emulsion concentrate and, with addition of the amount of solvent system, introduced into the spray liquor used for applying the active compound. In the examples, the solvent used was water.
(§7) In the examples below, using the method of S. R. Colby (1967) “Calculating synergistic and antagonistic responses of herbicide combinations”, Weeds 15, p. 22ff., the value E, which is expected if the activity of the individual active compounds is only additive, was calculated. E=X+Y−(X·Y/100) where X=effect in percent using herbicide A at an application rate a; • Y=effect in percent using herbicide B at application rate b; • E=expected effect (in %) of herbicide A+herbicide B at application rates a+b.

Brachiaria decumbens [1] = experiment: greenhouse pre-emergence treatment, BRADC; settings: 20 DAT, BRADC
From the text: as §1, §2, §3, §4, §5, §6, §7

Lolium multiflorum = experiment: greenhouse pre-emergence treatment, LOLMU; settings: 20 DAT, LOLMU
From the text: as §1, §2, §3, §4, §5, §6, §7

Galium aparine = experiment: greenhouse pre-emergence treatment, GALAP; settings: GALAP; for % activity, solo application: Table X2
From the text: as §1, §2, §3, §4, §5, §6, §7

Ambrosia elatior = experiment: greenhouse pre-emergence treatment, AMBEL; settings: AMBEL; for % activity: 21 DAT; for % activity, solo application: Table X2
From the text: as §1, §2, §3, §4, §5, §6, §7

Apera spica-venti = experiment: greenhouse pre-emergence treatment, APESV; settings: Apera spica-venti, 480 h, 20 DAT, flumioxazin WG 51% solo 3.75 gai/ha
From the text: as §1, §2, §3, §4, §5, §6, §7

Polygonum convolvulus = experiment: greenhouse pre-emergence treatment, POLCO; settings: POLCO
From the text: as §1, §2, §3, §4, §5, §6, §7

Setaria viridis [2] = experiment: greenhouse pre-emergence treatment, SETVI; settings: SETVI; for % activity: 21 DAT
From the text: as §1, §2, §3, §4, §5, §6, §7

Bromus sterilis [3] = experiment: greenhouse post-emergence treatment, BROST; settings: solo, WG 75%, BROST, 20 DAT
Method in brief: (§8)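 Scoring ran on a 0-100 scale, 100 meaning no emergence or destroyed above-ground parts, over a 2-4 week period; Colby formula E=X+Y−(X·Y/100) gave expected mixture effects. Species grew separately in loamy sand (about 3.0% humus) at 10-25° C or 20-35° C, with water as solvent.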

Matricaria chamomilla = experiment: greenhouse post-emergence treatment, MATCH; settings: solo, WG 75%, MATCH, 20 DAT
Method in brief: (§9)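 Visual herbicidal effect (0–100) recorded over a 2 to 4 week test period after foliar treatment at plant heights of 3 to 15 cm. Expected combination effects derived by the Colby formula from single-component effects X and Y.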

Stellaria media = experiment: greenhouse pre-emergence treatment, STEME; settings: 21 DAT
From the text: as §1, §2, §3, §4, §5, §6, §7

Bromus sterilis [4] = experiment: greenhouse pre-emergence treatment, BROST; settings: solo, WG 75%, BROST, 50 gai/ha, 21 DAT
From the text: as §1, §2, §3, §4, §5, §6, §7

Brachiaria decumbens [5] = experiment: greenhouse post-emergence treatment, BRADC; settings: 20 DAT, BRADC
Method in brief: (§10)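 Plants in loamy sand (~3.0% humus) were sprayed post-emergence at 3–15 cm height with actives in a water spray liquor made from 10% by weight emulsion concentrates. Plants were kept at 10-25° C. or 20-35° C. by species and rated over 2–4 weeks on a 0–100 scale (100 = complete destruction). Colby's E = X+Y−(X·Y/100) gave the expected additive effect.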

Digitaria sanguinalis [6] = experiment: greenhouse pre-emergence treatment, DIGSA; settings: DIGSA; for % activity: 21 DAT
From the text: as §1, §2, §3, §4, §5, §6, §7

Alopecurus myosuroides = experiment: greenhouse post-emergence treatment, ALOMY; settings: solo, WG 75%, ALOMY, 50 gai/ha, 20 DAT
Method in brief: as §8

Poa annua = experiment: greenhouse post-emergence treatment, POAAN; settings: solo, WG 75%, POAAN, 12.5 gai/ha, 20 DAT
Method in brief: as §10

Setaria viridis [7] = experiment: greenhouse post-emergence treatment, SETVI; settings: 20 DAT, SETVI
Method in brief: as §8

Papaver rhoeas = experiment: greenhouse post-emergence treatment, PAPRH; settings: solo, WG 75%, PAPRH, 20 DAT
Method in brief: as §9

Digitaria sanguinalis [8] = experiment: greenhouse post-emergence treatment, DIGSA; settings: solo, WG 75%, DIGSA, 100 gai/ha, 20 DAT
Method in brief: as §8

Avena fatua = experiment: greenhouse pre-emergence treatment, AVEFA; settings: AVEFA, trifludimoxazin solo 36 gai/ha, 20 DAT
From the text: as §1, §2, §3, §4, §5, §6, §7

[9] = solo, WG 75%, 12.5 gai/ha, 21 DAT
[10] = solo, WG 75%, 25 gai/ha, 21 DAT
[11] = solo, WG 75%, 50 gai/ha, 21 DAT
[12] = 4.5 gai/ha (SC 500 g/l), 20 DAT, Table X2
[13] = trifludimoxazin solo 18 gai/ha, 20 DAT
[14] = trifludimoxazin solo 36 gai/ha, 20 DAT
[15] = 4.5 gai/ha (SC 500 g/l), 20 DAT

Q: With `C#CCN1C(=O)COc2cc(F)c(N3C(=O)C4=C(CCCC4)C3=O)cc21` [flumioxazin] as the molecule, how does the inhibition at 30 g/ha (Helianthus annuus; Helianthus annuus, 480 h, 20 DAT, flumioxazin WG 51% solo 30 gai/ha) read?
A: The inhibition at 30 g/ha was 50%.

Q: What about the % herbicidal activity (weed control, 0-100 scale) at 15 g/ha (Brachiaria decumbens [1]; Urochloa decumbens, 480 h, flumioxazin WG 51% solo 15 gai/ha) of the same molecule?
A: Its % herbicidal activity (weed control, 0-100 scale) at 15 g/ha is 40%.

Q: What about the inhibition at 30 g/ha (Lolium multiflorum; Lolium multiflorum, 480 h, flumioxazin WG 51% solo 30 gai/ha) of the same molecule?
A: The inhibition at 30 g/ha was 65%.

Q: And the % herbicidal activity (weed control, 0-100 scale) at […] (Galium aparine; Galium aparine, 480 h, 20 DAT, flumioxazin WG 51% solo 7.5 gai/ha)?
A: Its % herbicidal activity (weed control, 0-100 scale) at […] is 0%.

Q: What about the % herbicidal activity (weed control, 0-100 scale) at 30 g/ha (Galium aparine; Galium aparine, 480 h, 20 DAT, flumioxazin WG 51% solo 30 gai/ha) of the same molecule?
A: The % herbicidal activity (weed control, 0-100 scale) at 30 g/ha was 65%.

Q: And the percent weed control (herbicidal activity, 0-100 scale) at 3.75 g/ha (Ambrosia elatior; Ambrosia artemisiifolia, 480 h, 20 DAT, flumioxazin WG 51% solo 3.75 gai/ha)?
A: The percent weed control (herbicidal activity, 0-100 scale) at 3.75 g/ha was 0%.

Q: And the percent weed control (herbicidal activity, 0-100 scale) at […] (Ambrosia elatior; Ambrosia artemisiifolia, 480 h, 20 DAT, flumioxazin WG 51% solo 7.5 gai/ha)?
A: The percent weed control (herbicidal activity, 0-100 scale) at […] was 0%.

Q: And the inhibition at 3.75 g/ha (Apera spica-venti)?
A: Its inhibition at 3.75 g/ha is 25%.

Q: What about the inhibition at […] (Polygonum convolvulus; Fallopia convolvulus, 480 h, 20 DAT, flumioxazin WG 51% solo 7.5 gai/ha) of the same molecule?
A: The inhibition at […] was 65%.

Q: Which results are given for `O=C(Nc1ccc(F)cc1)c1cccc(Oc2cccc(C(F)(F)F)c2)n1` [picolinafen]?
A: % activity (Setaria viridis [2]; picolinafen solo 25 gai/ha): 70%; % activity (Setaria viridis [2]; picolinafen solo 50 gai/ha): 80%; % activity (Setaria viridis [2]; picolinafen solo 100 gai/ha): 85%; % activity (Setaria viridis [2]; picolinafen solo 250 gai/ha): 70%; % activity (Setaria viridis [2]; solo, WG 75%, 12.5 gai/ha): 45%; % activity (Setaria viridis [2]; solo, WG 75%, 50 gai/ha): 80%; % activity (Helianthus annuus; picolinafen solo 12.5 gai/ha, 21 DAT): 10%; % activity (Helianthus annuus; picolinafen solo 50 gai/ha, 21 DAT): 15%; % activity (Helianthus annuus; [9]): 10%; % activity (Helianthus annuus; [10]): 20%; % activity (Helianthus annuus; [11]): 15%; % activity (Bromus sterilis [3]; 12.5 gai/ha): 0%; % activity (Bromus sterilis [3]; 25 gai/ha): 0%; % activity (Bromus sterilis [3]; 50 gai/ha): 10%; % activity (Bromus sterilis [3]; 100 gai/ha): 20%; % activity (Matricaria chamomilla; 12.5 gai/ha): 0%; % activity (Matricaria chamomilla; 25 gai/ha): 20%; % activity (Matricaria chamomilla; 50 gai/ha): 20%; % activity (Stellaria media; picolinafen solo 25 gai/ha): 20%; % activity (Stellaria media; picolinafen solo 50 gai/ha): 50%; % activity (Stellaria media; picolinafen solo 100 gai/ha): 65%; % activity (Bromus sterilis [4]): 20%; % activity (Brachiaria decumbens [5]; picolinafen WG 75% solo 25 gai/ha): 35%; % activity (Brachiaria decumbens [5]; picolinafen WG 75% solo 50 gai/ha): 50%; % activity (Brachiaria decumbens [5]; solo, WG 75%, 25 gai/ha): 35%; % activity (Brachiaria decumbens [5]; solo, WG 75%, 50 gai/ha): 50%; % activity (Digitaria sanguinalis [6]; picolinafen solo 12.5 gai/ha): 0%; % activity (Digitaria sanguinalis [6]; solo, WG 75%, 25 gai/ha): 30%; % activity (Digitaria sanguinalis [6]; solo, WG 75%, 50 gai/ha): 60%; % activity (Galium aparine; [9]): 0%; % activity (Galium aparine; [10]): 0%; % activity (Alopecurus myosuroides): 10%; % activity (Poa annua): 40%; % activity (Ambrosia elatior; picolinafen solo 50 gai/ha): 0%; % activity (Ambrosia elatior; solo, WG 75%, 12.5 gai/ha): 0%; % activity (Ambrosia elatior; solo, WG 75%, 25 gai/ha): 0%; % activity (Ambrosia elatior; solo, WG 75%, 50 gai/ha): 0%; % activity (Setaria viridis [7]; picolinafen WG 75% solo 12.5 gai/ha): 30%; % activity (Setaria viridis [7]; solo, WG 75%, 12.5 gai/ha): 30%; % activity (Setaria viridis [7]; solo, WG 75%, 50 gai/ha): 80%; % activity (Papaver rhoeas; 12.5 gai/ha): 35%; % activity (Papaver rhoeas; 25 gai/ha): 40%; % activity (Papaver rhoeas; 50 gai/ha): 55%; % activity (Papaver rhoeas; 100 gai/ha): 80%; % activity (Digitaria sanguinalis [8]): 75%; % activity (Polygonum convolvulus; [11]): 20%

Q: How did the “% activity, solo application” value (Setaria viridis [2]; [12]) turn out when `C#CCN1C(=O)C(F)(F)Oc2cc(F)c(-n3c(=O)n(C)c(=S)n(C)c3=O)cc21` [trifludimoxazin] was run?
A: The value was 75%.

Q: And the “% activity, solo application” value (Helianthus annuus; 18 gai/ha (SC 500 g/l), 20 DAT, Table X2)?
A: Its value is 0%.

Q: What about the “% activity” value (Helianthus annuus; [13]) of the same molecule?
A: Its value is 0%.

Q: And the “% activity” value (Helianthus annuus; [14])?
A: Its value is 30%.

Q: What about the “% activity, solo application” value (Brachiaria decumbens [1]; 9 gai/ha (SC 500 g/l), Table X2) of the same molecule?
A: Its value is 45%.

Q: What about the “% activity” value (Brachiaria decumbens [1]; trifludimoxazin solo 18 gai/ha) of the same molecule?
A: Its value is 50%.

Q: What about the “% activity” value (Brachiaria decumbens [1]; trifludimoxazin solo 36 gai/ha) of the same molecule?
A: The value was 80%.

Q: And the “% activity” value (Lolium multiflorum; trifludimoxazin solo 36 gai/ha)?
A: Its value is 75%.

Q: And the “% activity, solo application” value (Digitaria sanguinalis [6]; [12])?
A: The value was 50%.

Q: And the “% activity, solo application” value (Galium aparine; [15])?
A: Its value is 0%.

Q: And the “% activity, solo application” value (Galium aparine; 9 gai/ha (SC 500 g/l), 20 DAT)?
A: The value was 0%.

Q: What about the “% activity, solo application” value (Galium aparine; 18 gai/ha (SC 500 g/l), 20 DAT) of the same molecule?
A: Its value is 0%.

Q: What about the “% activity, solo application” value (Galium aparine; 36 gai/ha (SC 500 g/l), 20 DAT) of the same molecule?
A: Its value is 40%.

Q: And the “% activity” value (Galium aparine; trifludimoxazin solo 4.5 gai/ha, 20 DAT)?
A: Its value is 0%.

Q: What about the “% activity” value (Galium aparine; trifludimoxazin solo 9 gai/ha, 20 DAT) of the same molecule?
A: The value was 0%.

Q: And the “% activity” value (Galium aparine; [13])?
A: Its value is 0%.

Q: And the “% activity” value (Galium aparine; [14])?
A: The value was 40%.

Q: And the “% activity, solo application” value (Ambrosia elatior; [15])?
A: The value was 0%.

Q: What about the “% activity, solo application” value (Ambrosia elatior; 9 gai/ha (SC 500 g/l), 20 DAT) of the same molecule?
A: The value was 50%.

Q: What about the “% activity” value (Avena fatua) of the same molecule?
A: The value was 50%.
